Each structure is given as a SMILES string.

Inhibition data for 12 molecules are collected here from patent US12162820B2 (TAIWANJ PHARMACEUTICALS CO., LTD., priority 2019, dated 2024).

Holding throughout (type): biochemical
One assay has as its target T1, HDAC1 (Homo sapiens, UniProt Q13547).
T1 construct: purchased Enzo Life Sciences
In words: HDAC Inhibition Screening Assay (FLUOR DE LYS Fluorimetric Drug Discovery Kit), HDAC1. Particulars: for inhibition at 2 µM: 2 μM compound; for inhibition at 10 µM: 10 μM compound; for inhibition at 50 µM: 50 μM compound. The procedure, abridged: (§1)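 Two-step fluorimetric kit: enzyme deacetylates acetylated-lysine substrate; developer then releases fluorophore. Test cpds 2, 10, 50 μM. Ex 360/485 nm, Em 460/530 nm. Activity = % of basal control minus baseline control.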

The target of another assay is T2, HDAC2 (Homo sapiens, UniProt Q92769).
T2 construct: purchased Enzo Life Sciences
T2 sequence (Q92769 whole entry): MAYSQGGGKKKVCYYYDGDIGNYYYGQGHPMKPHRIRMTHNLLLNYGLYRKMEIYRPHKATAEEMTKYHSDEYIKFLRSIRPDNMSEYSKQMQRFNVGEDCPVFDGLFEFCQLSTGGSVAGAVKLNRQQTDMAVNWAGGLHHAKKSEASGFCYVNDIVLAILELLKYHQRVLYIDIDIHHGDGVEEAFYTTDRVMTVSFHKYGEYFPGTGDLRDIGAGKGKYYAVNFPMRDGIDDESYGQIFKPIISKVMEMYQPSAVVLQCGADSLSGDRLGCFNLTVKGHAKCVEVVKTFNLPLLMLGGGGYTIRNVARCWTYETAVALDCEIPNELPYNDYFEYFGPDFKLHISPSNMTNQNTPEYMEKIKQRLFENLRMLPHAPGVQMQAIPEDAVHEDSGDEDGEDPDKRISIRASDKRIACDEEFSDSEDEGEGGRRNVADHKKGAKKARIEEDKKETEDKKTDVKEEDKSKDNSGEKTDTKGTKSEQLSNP
Briefly: HDAC Inhibition Screening Assay (FLUOR DE LYS Fluorimetric Drug Discovery Kit), HDAC2. Particulars: for inhibition at 2 µM: 2 μM compound; for inhibition at 10 µM: 10 μM compound; for inhibition at 50 µM: 50 μM compound. The procedure, abridged: as §1

The target of the next assay is T3, HDAC3 (Homo sapiens, UniProt O15379).
T3 construct: purchased Enzo Life Sciences
T3 sequence (O15379 whole entry): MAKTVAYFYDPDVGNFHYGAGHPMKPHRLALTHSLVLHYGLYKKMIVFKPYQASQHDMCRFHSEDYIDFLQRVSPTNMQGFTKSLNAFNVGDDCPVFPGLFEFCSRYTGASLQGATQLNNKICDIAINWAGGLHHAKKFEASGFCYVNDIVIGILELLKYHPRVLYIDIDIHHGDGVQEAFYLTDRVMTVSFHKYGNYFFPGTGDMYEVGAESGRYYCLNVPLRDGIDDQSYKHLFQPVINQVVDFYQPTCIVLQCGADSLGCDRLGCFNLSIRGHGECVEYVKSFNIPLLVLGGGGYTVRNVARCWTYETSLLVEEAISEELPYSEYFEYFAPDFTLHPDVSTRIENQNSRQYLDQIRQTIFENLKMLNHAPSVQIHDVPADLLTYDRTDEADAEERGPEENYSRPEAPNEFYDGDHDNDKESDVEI
T3 sequence (O75376 395-489 partner limits assumed): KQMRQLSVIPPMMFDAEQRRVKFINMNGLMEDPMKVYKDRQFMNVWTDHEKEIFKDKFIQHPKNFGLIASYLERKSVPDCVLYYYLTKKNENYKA
In words: HDAC Inhibition Screening Assay (FLUOR DE LYS Fluorimetric Drug Discovery Kit), HDAC3. The conditions noted are these: for inhibition at 2 µM: 2 μM compound; for inhibition at 10 µM: 10 μM compound; for inhibition at 50 µM: 50 μM compound. The procedure, abridged: as §1

Another assay concerns the target T4, ATX (autotaxin) (Homo sapiens, UniProt Q13822).
T4 construct: purchased Cayman 10803
Briefly: Autotaxin Inhibition Screening Assay (choline release from LPC, LPC-CR). Particulars: for inhibition at 4 µM: 4 μM compound; for inhibition at 20 µM: 20 μM compound; for inhibition at 50 µM: 50 μM compound. The procedure, abridged: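 20 ng ATX incubated with 100 μM 14:0 LPC in 50 mM Tris pH 8.0, 0.01% Triton X-100, 50 mM CaCl2, with choline oxidase/HRP/2 mM HVA coupling; compounds at 4, 20 and 50 μM. HVA fluorescence (ex/em 320/450 nm) read every 60 s for 90 min; inhibition % from slopes corrected for blank versus vehicle.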

T1 sequence (Q13547 whole entry): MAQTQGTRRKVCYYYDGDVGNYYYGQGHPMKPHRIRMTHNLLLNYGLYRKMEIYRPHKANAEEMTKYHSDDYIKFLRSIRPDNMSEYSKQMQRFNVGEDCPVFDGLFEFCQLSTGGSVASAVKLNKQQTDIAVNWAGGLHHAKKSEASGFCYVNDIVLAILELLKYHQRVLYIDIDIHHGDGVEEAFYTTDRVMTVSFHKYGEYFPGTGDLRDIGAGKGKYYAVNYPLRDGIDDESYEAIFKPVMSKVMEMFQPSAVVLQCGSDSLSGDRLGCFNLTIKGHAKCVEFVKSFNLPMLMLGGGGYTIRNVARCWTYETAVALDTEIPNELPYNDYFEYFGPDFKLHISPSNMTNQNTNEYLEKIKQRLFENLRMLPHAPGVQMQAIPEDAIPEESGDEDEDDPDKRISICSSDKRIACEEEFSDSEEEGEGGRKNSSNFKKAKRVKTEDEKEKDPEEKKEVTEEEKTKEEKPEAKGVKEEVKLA

The inhibition is the drop in the measured response relative to a control, in per cent. Consider `COc1ccc2c(c1)CCC2NC(=O)CCCCCCC(=O)Nc1ccc(F)cc1N` (stereo not drawn) [Compound 43, N1-(2-amino-4-fluorophenyl)-N8-(5-methoxy-2,3-dihydro-1H-inden-1-yl)octanediamide], for which, at HDAC1, the inhibition at 2 µM is less than 50%, the inhibition at 10 µM is less than 50% and the inhibition at 50 µM is less than 50%. For the same molecule, at HDAC2, the inhibition at 2 µM is less than 50%, the inhibition at 10 µM is less than 50% and the inhibition at 50 µM lay within 50 to 80%. For the same molecule, on HDAC3, the inhibition at 2 µM was less than 50%, the inhibition at 10 µM fell in the range of 50 to 80% and the inhibition at 50 µM lay within 50 to 80%. At ATX (autotaxin), this molecule returned an inhibition at 4 µM of less than 50%, an inhibition at 20 µM of less than 50% and an inhibition at 50 µM of less than 50%.
`COc1ccc2c(c1)CCC2NC(=O)CCCCCCC(=O)NO` (stereo not drawn) [Compound 44]: on HDAC1, the inhibition at 2 µM was 50 to 80%, the inhibition at 10 µM was more than 80% and the inhibition at 50 µM was more than 80%. At HDAC2, the inhibition at 2 µM lay within 50 to 80%, the inhibition at 10 µM was more than 80% and the inhibition at 50 µM is more than 80%. At HDAC3, the inhibition at 2 µM fell in the range of 50 to 80%, the inhibition at 10 µM is more than 80% and the inhibition at 50 µM was more than 80%. On ATX (autotaxin), this molecule displayed an inhibition at 4 µM of less than 50%, an inhibition at 20 µM of less than 50% and an inhibition at 50 µM of less than 50%.
As for `O=C(CCCCCN(CC(=O)NC1CCc2ccccc21)CC(=O)NC1CCc2ccccc21)NO` (stereo not drawn) [Compound 45, 2,2′-((6-(hydroxyamino)-6-oxohexyl)azanediyl)bis(N-(2,3-dihydro-1H-inden-1-yl)acetamide)], on HDAC1, the inhibition at 2 µM is more than 80%, the inhibition at 10 µM is more than 80% and the inhibition at 50 µM is more than 80%. Moreover, on HDAC2, the inhibition at 2 µM was more than 80%, the inhibition at 10 µM was more than 80% and the inhibition at 50 µM was more than 80%. For the same molecule, at HDAC3, the inhibition at 2 µM is more than 80%, the inhibition at 10 µM is more than 80% and the inhibition at 50 µM is more than 80%. On ATX (autotaxin), this molecule came in with an inhibition at 4 µM of less than 50%, an inhibition at 20 µM of less than 50% and an inhibition at 50 µM of less than 50%.
Turning to `O=C(CCCCCCC(=O)NC1CCCc2cc(Br)ccc21)NO` (stereo not drawn) [Compound 46, N1-(6-bromo-1,2,3,4-tetrahydronaphthalen-1-yl)-N8-hydroxyoctanediamide], at HDAC1, the inhibition at 2 µM was less than 50%, the inhibition at 10 µM is 50 to 80% and the inhibition at 50 µM was in the range of 50 to 80%. Besides, on HDAC2, the inhibition at 2 µM was less than 50%, the inhibition at 10 µM was 50 to 80% and the inhibition at 50 µM was more than 80%. Moreover, at HDAC3, the inhibition at 2 µM was less than 50%, the inhibition at 10 µM was less than 50% and the inhibition at 50 µM lay in the range of 50 to 80%. At ATX (autotaxin), this molecule gave an inhibition at 4 µM of less than 50%, an inhibition at 20 µM of less than 50% and an inhibition at 50 µM of less than 50%.
Turning to `COc1ccc2c(c1)CCCC2NC(=O)CCCCCCC(=O)Nc1ccc(F)cc1N` (stereo not drawn) [Compound 47, N1-(2-amino-4-fluorophenyl)-N8-(6-methoxy-1,2,3,4-tetrahydronaphthalen-1-yl)octanediamide], at HDAC1, the inhibition at 2 µM was less than 50%, the inhibition at 10 µM is less than 50% and the inhibition at 50 µM is less than 50%. For the same molecule, at HDAC2, the inhibition at 2 µM was less than 50%, the inhibition at 10 µM lay within 50 to 80% and the inhibition at 50 µM lay in the range of 50 to 80%. At HDAC3, the inhibition at 2 µM was 50 to 80%, the inhibition at 10 µM lay within 50 to 80% and the inhibition at 50 µM is more than 80%. In addition, on ATX (autotaxin), the inhibition at 4 µM was less than 50%, the inhibition at 20 µM was less than 50% and the inhibition at 50 µM is less than 50%.
Regarding `COc1ccc2c(c1)CCCC2NC(=O)CCCCCCC(=O)NO` (stereo not drawn) [Compound 48, N^1-hydroxy-N^8-(6-methoxy-1,2,3,4-tetrahydronaphthalen-1-yl)octanediamide], at HDAC1, the inhibition at 2 µM was more than 80%, the inhibition at 10 µM was more than 80% and the inhibition at 50 µM was more than 80%. In addition, at HDAC2, the inhibition at 2 µM was more than 80%, the inhibition at 10 µM was more than 80% and the inhibition at 50 µM was more than 80%. Moreover, at HDAC3, the inhibition at 2 µM is more than 80%, the inhibition at 10 µM was more than 80% and the inhibition at 50 µM was more than 80%. On ATX (autotaxin), this molecule yielded an inhibition at 4 µM of less than 50%, an inhibition at 20 µM of less than 50% and an inhibition at 50 µM of less than 50%.
In the case of `Nc1cc(F)ccc1NC(=O)/C=C/c1ccc2c(c1)CCC2NCCC(=O)Nc1cc(C(F)(F)F)cc(C(F)(F)F)c1` (stereo not drawn) [Compound 49, (E)-N-(2-amino-4-fluorophenyl)-3-(1-((3-((3,5-bis(trifluoromethyl)phenyl)amino)-3-oxopropyl)amino)-2,3-dihydro-1H-inden-5-yl)acrylamide], on HDAC1, the inhibition at 2 µM is less than 50%, the inhibition at 10 µM was less than 50% and the inhibition at 50 µM is less than 50%. In addition, at HDAC2, the inhibition at 2 µM was less than 50%, the inhibition at 10 µM was less than 50% and the inhibition at 50 µM lay in the range of 50 to 80%. Besides, at HDAC3, the inhibition at 2 µM was less than 50%, the inhibition at 10 µM is less than 50% and the inhibition at 50 µM is 50 to 80%. In addition, at ATX (autotaxin), the inhibition at 4 µM is less than 50%, the inhibition at 20 µM is less than 50% and the inhibition at 50 µM is less than 50%.
In the case of `O=C(/C=C/c1ccc2c(c1)CCC2NCCC(=O)Nc1cc(C(F)(F)F)cc(C(F)(F)F)c1)NO` (stereo not drawn) [Compound 50, (E)-3-(1-((3-((3,5-bis(trifluoromethyl)phenyl)amino)-3-oxopropyl)amino)-2,3-dihydro-1H-inden-5-yl)-N-hydroxyacrylamide], on HDAC1, the inhibition at 2 µM was more than 80%, the inhibition at 10 µM is more than 80% and the inhibition at 50 µM is more than 80%. Also, at HDAC2, the inhibition at 2 µM is more than 80%, the inhibition at 10 µM is more than 80% and the inhibition at 50 µM is more than 80%. For the same molecule, on HDAC3, the inhibition at 2 µM was more than 80%, the inhibition at 10 µM was more than 80% and the inhibition at 50 µM is more than 80%. On ATX (autotaxin), this molecule registered an inhibition at 4 µM of less than 50%, an inhibition at 20 µM of less than 50% and an inhibition at 50 µM of less than 50%.
With `COc1ccc(CCNC2CCc3cc(/C=C/C(=O)Nc4ccc(F)cc4N)ccc32)cc1` (stereo not drawn) [Compound 51, (E)-N-(2-amino-4-fluorophenyl)-3-(1-((4-methoxyphenethyl)amino)-2,3-dihydro-1H-inden-5-yl) acrylamide], on HDAC1, the inhibition at 2 µM is less than 50%, the inhibition at 10 µM lay in the range of 50 to 80% and the inhibition at 50 µM was more than 80%. In addition, on HDAC2, the inhibition at 2 µM lay within 50 to 80%, the inhibition at 10 µM is more than 80% and the inhibition at 50 µM was more than 80%. Moreover, at HDAC3, the inhibition at 2 µM was more than 80%, the inhibition at 10 µM was more than 80% and the inhibition at 50 µM is more than 80%. Besides, on ATX (autotaxin), the inhibition at 4 µM is less than 50%, the inhibition at 20 µM is less than 50% and the inhibition at 50 µM was less than 50%.
Consider `COc1ccc(CCNC2CCc3cc(/C=C/C(=O)NO)ccc32)cc1` (stereo not drawn) [Compound 52, (E)-N-hydroxy-3-(1-((4-methoxyphenethyl)amino)-2,3-dihydro-1H-inden-5-yl)acrylamide], for which, on HDAC1, the inhibition at 2 µM is more than 80%, the inhibition at 10 µM was more than 80% and the inhibition at 50 µM is more than 80%. For the same molecule, on HDAC2, the inhibition at 2 µM is more than 80%, the inhibition at 10 µM was more than 80% and the inhibition at 50 µM was more than 80%. Moreover, on HDAC3, the inhibition at 2 µM is more than 80%, the inhibition at 10 µM is more than 80% and the inhibition at 50 µM is more than 80%. Further, on ATX (autotaxin), the inhibition at 4 µM was less than 50%, the inhibition at 20 µM is less than 50% and the inhibition at 50 µM is less than 50%.
For the molecule `O=C(/C=C/c1ccc2c(c1)CCC2NCCc1ccc(F)cc1)NO` (stereo not drawn) [Compound 53], on HDAC1, the inhibition at 2 µM is more than 80%, the inhibition at 10 µM is more than 80% and the inhibition at 50 µM was more than 80%. At HDAC2, the inhibition at 2 µM was more than 80%, the inhibition at 10 µM was more than 80% and the inhibition at 50 µM was more than 80%. Moreover, at HDAC3, the inhibition at 2 µM was more than 80%, the inhibition at 10 µM is more than 80% and the inhibition at 50 µM was more than 80%. In addition, on ATX (autotaxin), the inhibition at 4 µM is less than 50%, the inhibition at 20 µM is less than 50% and the inhibition at 50 µM is less than 50%.
On to `O=C(/C=C/c1ccc2c(c1)CCC2NCCc1cc(C(F)(F)F)cc(C(F)(F)F)c1)NO` (stereo not drawn) [Compound 54, (E)-3-(1-((3,5-bis(trifluoromethyl)phenethyl)amino)-2,3-dihydro-1H-inden-5-yl)-N-hydroxyacrylamide], for which, at HDAC1, the inhibition at 2 µM was more than 80%, the inhibition at 10 µM was more than 80% and the inhibition at 50 µM was more than 80%. Besides, on HDAC2, the inhibition at 2 µM was more than 80%, the inhibition at 10 µM was more than 80% and the inhibition at 50 µM is more than 80%. Moreover, at HDAC3, the inhibition at 2 µM is more than 80%, the inhibition at 10 µM is more than 80% and the inhibition at 50 µM is more than 80%. On ATX (autotaxin), this molecule gave an inhibition at 4 µM of less than 50%, an inhibition at 20 µM of less than 50% and an inhibition at 50 µM of less than 50%.
